Reference: the supplement of paper PMC10307832

Experiments:
Assay in all cases: relative viability (nuclei count vs DMSO), 5 days (fraction); higher = more cells survive
AZ628 + Foretinib = compound: CC1=C(C=C(C=C1)NC(=O)C2=CC(=CC=C2)C(C)(C)C#N)NC3=CC4=C(C=C3)N=CN(C4=O)C [AZ628] + COc1cc2c(Oc3ccc(NC(=O)C4(C(=O)Nc5ccc(F)cc5)CC4)cc3F)ccnc2cc1OCCCN1CCOCC1 [Foretinib] (partner 0.25 µM)
Procedure, shortened: (§1)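 Relative viability is defined as nuclei in treated wells over nuclei in vehicle wells. Duplicate plates were run and medians reported. Lung cancer cell lines in 1536-well plates were dosed by pin tool one day after seeding, with one drug or with a fixed anchor-drug dose plus five library-drug doses (not always all listed) in √10 steps, and nuclei were counted after 5 days.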

AZ628 + Bortezomib = compound: CC1=C(C=C(C=C1)NC(=O)C2=CC(=CC=C2)C(C)(C)C#N)NC3=CC4=C(C=C3)N=CN(C4=O)C [AZ628] + CC(C)C[C@H](NC(=O)[C@H](Cc1ccccc1)NC(=O)c1cnccn1)B(O)O [Bortezomib] (partner 0.002 µM)
Procedure, shortened: as §1

AZ628 + Lapatinib = compound: CC1=C(C=C(C=C1)NC(=O)C2=CC(=CC=C2)C(C)(C)C#N)NC3=CC4=C(C=C3)N=CN(C4=O)C [AZ628] + CS(=O)(=O)CCNCc1ccc(-c2ccc3ncnc(Nc4ccc(OCc5cccc(F)c5)c(Cl)c4)c3c2)o1 [Lapatinib] (partner 2 µM)
Procedure, shortened: as §1

QS11 + Palbociclib = compound: C1CC2=C(C1)C=C(C=C2)OC3=NC(=C4C(=N3)N(C=N4)CC5=CC=C(C=C5)C6=CC=CC=C6)N[C@@H](CC7=CC=CC=C7)CO [QS11] + CC(=O)c1c(C)c2cnc(Nc3ccc(N4CCNCC4)cn3)nc2n(C2CCCC2)c1=O [Palbociclib] (partner 0.5 µM)
Procedure, shortened: as §1

Cell Line	relative viability (AZ628 + Foretinib; first compound 0.08 µM)	relative viability (AZ628 + Foretinib; first compound 0.253 µM)	relative viability (AZ628 + Foretinib; first compound 0.8 µM)	relative viability (AZ628 + Foretinib; first compound 2.53 µM)	relative viability (AZ628 + Foretinib; first compound 8 µM)	relative viability (AZ628 + Bortezomib; first compound 0.08 µM)	relative viability (AZ628 + Bortezomib; first compound 0.253 µM)	relative viability (AZ628 + Bortezomib; first compound 0.8 µM)	relative viability (AZ628 + Bortezomib; first compound 2.53 µM)	relative viability (AZ628 + Bortezomib; first compound 8 µM)	relative viability (AZ628 + Lapatinib; first compound 0.08 µM)	relative viability (AZ628 + Lapatinib; first compound 0.253 µM)	relative viability (AZ628 + Lapatinib; first compound 0.8 µM)	relative viability (AZ628 + Lapatinib; first compound 2.53 µM)	relative viability (AZ628 + Lapatinib; first compound 8 µM)	relative viability (QS11 + Palbociclib; first compound 0.08 µM)	relative viability (QS11 + Palbociclib; first compound 0.253 µM)	relative viability (QS11 + Palbociclib; first compound 0.8 µM)	relative viability (QS11 + Palbociclib; first compound 2.53 µM)	relative viability (QS11 + Palbociclib; first compound 8 µM)
SW 1573	0.858	0.858	0.664	0.7	0.517	0.952	0.911	0.886	0.946	0.621	0.997	0.964	0.283	0.884	0.874	0.388	0.35	0.339	0.223	0.161
NCI-H358	0.538	0.472	0.373	0.466	0.323	–	–	–	–	–	0.446	0.422	0.404	0.432	0.339	0.132	0.128	0.134	0.159	0.118
ChaGo-K-1	0.962	0.837	0.924	0.916	0.751	0.987	–	0.85	1.11	1.15	–	–	–	–	–	–	0.955	1.02	1.02	1.07
201T	1.29	1.01	1.18	1.16	1.31	1.15	1.13	1.13	1.16	1.21	1.01	0.988	1.06	1.12	1.18	0.369	0.406	0.345	0.395	0.277
HCC-44	–	–	–	–	–	0.904	0.915	1.09	1.01	0.758	0.982	1.06	1.01	1.02	0.844	1.07	0.998	0.732	0.901	0.866
EMC-BAC-2	0.91	0.87	0.871	0.901	0.877	1.11	0.963	1	0.991	1.08	0.9	0.853	0.817	0.844	0.933	0.515	0.545	0.43	0.443	0.406
NCI-H2405	0.637	0.857	0.673	0.757	0.539	0.756	0.864	0.548	0.68	1.09	0.733	0.59	0.487	0.487	0.515	0.544	0.541	0.488	0.536	0.502
NCI-H2342	1.08	1.01	1.16	1.24	1.12	–	–	–	–	–	–	–	–	–	–	0.52	0.541	0.515	0.474	0.491
NCI-H1395	0.996	0.967	0.974	1	0.939	–	–	–	–	–	1.04	1	0.942	0.933	0.916	0.596	0.654	0.628	0.664	0.666
NCI-H2170	0.992	1.07	1.03	1.07	0.913	–	–	–	–	–	0.3	0.279	0.248	0.268	0.278	0.391	0.472	0.291	0.365	0.371
NCI-H522	–	–	–	–	–	–	–	–	–	–	–	–	–	–	–	0.766	0.841	0.987	1.15	1.19
NCI-H1648	–	–	–	–	–	–	–	–	–	–	–	–	–	–	–	0.279	0.265	0.331	0.294	0.294
NCI-H1563	0.957	0.997	0.944	0.963	0.953	0.898	0.856	0.894	0.855	0.95	1.11	0.965	1.07	0.868	0.939	–	–	–	–	–
NCI-H1703	0.327	0.41	0.415	0.302	0.413	0.266	0.207	0.203	0.166	0.224	0.763	0.393	0.389	0.246	0.286	–	–	–	–	–
NCI-H441	0.94	0.962	0.896	0.901	0.846	0.733	0.47	0.973	0.454	0.441	–	–	–	–	–	0.213	0.244	0.255	0.201	0.227
NCI-H1793	0.669	0.83	0.787	0.487	0.384	–	–	–	–	–	0.927	0.627	0.573	0.665	0.579	0.335	0.274	0.29	0.404	0.491
Calu-6	0.867	0.726	0.636	0.816	0.142	1.03	0.943	0.61	0.792	0.244	1.2	0.981	0.629	0.844	0.222	–	–	–	–	–
LCLC-103H	0.724	0.753	0.802	0.729	0.853	0.932	1.13	1.09	1.02	1.18	–	–	–	–	–	0.498	0.506	–	0.535	0.481
NCI-H596	0.867	1.05	0.913	0.905	0.991	1	1.03	1.09	1.09	1.27	1.03	1.08	1.11	1.08	1.27	–	–	–	–	–
NCI-H1944	0.943	0.842	0.69	0.757	0.604	–	–	–	–	–	0.855	0.892	0.831	0.747	0.701	0.312	0.344	–	0.275	0.254
NCI-H1623	0.848	0.829	0.62	0.764	0.498	–	–	–	–	–	–	–	–	–	–	–	–	–	–	–
A549	0.931	0.824	0.816	0.956	0.34	–	–	–	–	–	1.13	0.839	0.676	0.835	0.536	–	–	–	–	–
